Experimental data published in PMC4626215, “Esculentin-2CHa-Related Peptides Modulate Islet Cell Function and Improve Glucose Tolerance in Mice with Diet-Induced Obesity and Insulin Resistance” (PLoS ONE, 2015).
Bridges are numbered along the chain shown (N, C = ends). Where no end group is shown, it is not given here.

What was measured:
BRIN-BD11 cells [1] = test: Membrane potential, FLIPR membrane assay kit; type: cell-based, rat; settings: for Membrane potential (AUC, x 10^3 RFU): 1 μM peptide, 5 min, mean ± SEM, n = 8
Protocol: (§1) Effects of esculentin-2CHa (1 μM) and its analogues on membrane potential and [Ca^2+]i in BRIN-BD11 cells over a period of 5 min were assessed using commercially available FLIPR membrane or calcium assay kit (Molecular Devices, USA) as previously described. Data were captured using a Flexstation 3 microplate reader equipped with automatic fluid transfer unit (Molecular Devices, USA).

[2] = tested on: BRIN-BD11 rat clonal β-cells; test: In vitro insulin release from BRIN-BD11 cells; type: cell-based; settings: 5.6 mM glucose; for BRIN-BD11 cells (Threshold concentration): minimum concentration producing a significant increase in rate of insulin release, 37°C
Protocol: (§2) In vitro insulin-releasing effects of esculentin-2CHa and its analogues were assessed using BRIN-BD11 rat clonal β-cells and mouse islets. In the first set of experiments, BRIN-BD11 cells were incubated with the peptides in the concentration range (1 pM– 3 μM) in Krebs-Ringer bicarbonate buffer containing 5.6 mM glucose for 20 min at 37°C as previously described [15–17]. Insulin-releasing effects were also assessed using buffer supplemented with 1.4 and 16.7mm glucose concentrations and with established modulators of insulin release as previously described [15–17]. In a second set of experiments, islets from NIH Swiss mice, isolated by collagenase digestion [18, 19], were incubated with a range of concentrations of esculentin-2CHa or its analogues (0.1 nM– 1 μM) for 1 h in Krebs-Ringer bicarbonate (KRB) buffer supplemented with 1.4, 5.6 or 16.7 mM glucose. Following test incubations, aliquots of buffer were retrieved and stored at -20°C for measurement of insulin by radioimmunoassay [20].

BRIN-BD11 cells [3] = test: Intracellular calcium ([Ca2+]i), FLIPR calcium assay kit; type: cell-based, rat; settings: for Intracellular Ca2+ (AUC, x 10^2 RFU): 1 μM peptide, 5 min, mean ± SEM, n = 8
Protocol: as §1

[4] = tested on: islets from NIH Swiss mice; test: In vitro insulin release from isolated mouse islets; type: cell-based; settings: 16.7 mM glucose; for Stimulation of insulin release from islets, fold of basal: 1 μM, 1 h; for Mouse islets (Threshold concentration): insulin release, 1 h incubation, n = 8
Protocol: as §2

high fat fed mice = test: Acute in vivo glucose tolerance and insulin release; parameters: species or system mouse; settings: for Plasma glucose (AUC) / Plasma insulin (AUC): ip glucose 18 mmol/kg with peptide 75 nmol/kg, AUC 0-60 min, mean ± SEM, n = 8
Protocol: Male National Institutes of Health (NIH) Swiss mice (Harlan Ltd, UK) were housed separately in an air-conditioned room (22 ± 2°C) with relative humidity of 51 ± 5% and a 12-hour light: 12-hour dark cycle and maintained on a high fat diet containing 45% fat, 20% protein and 35% carbohydrate (total energy 19.5 kJ/g, Dietex International Ltd, Witham, UK) for 120 days. Mice maintained on standard rodent diet containing 10% fat, 30% protein and 60% carbohydrates (total energy 12.99 kJ/g) were used as controls. Both groups of animals were allowed food and water ad libitum. All animal experiments were carried out in accordance with the UK Animals (Scientific Procedures) Act 1986 and EU Directive 2010/63EU for animal experiments. The study was approved by University of Ulster Research Ethics Committee.
For acute in vivo studies, overnight fasted, high fat fed mice (n = 8) received an intraperitoneal injection of glucose alone (18 mmol/kg body weight) or in combination with esculentin-2CHa or its analogues (75 nmol/kg body weight). This peptide dose was selected on the basis of a pilot study that examined acute effects of different doses of esculentin-2CHa on glucose tolerance in lean mice. Blood samples were collected as described previously before injection and at times indicated in the Figures for the measurement of plasma glucose and insulin concentrations.
Pancreatic tissues were homogenized in 20 mM Tris-HCl, 150 mM NaCl, 1 mM EDTA, 1 mM EGTA and 0.5% Triton X 100; pH 7.5 as previously described. Blood samples (approximately 150 μl), collected from the cut tip of the tail vein of unanesthetized mice at intervals indicated in the Figures were used for blood glucose measurements and determination of plasma insulin as previously described. Blood glucose was measured using a hand-held Ascencia Contour meter (Bayer Healthcare, UK). Plasma and pancreatic insulin were determined by radioimmunoassay. Plasma and pancreatic glucagon contents were determined by ELISA using commercially available kit (Millipore, MA, USA). Plasma creatinine, alanine transaminase (ALT), aspartic acid transaminase (AST) and alkaline phosphatase (ALP) were measured using commercially available kits (Randox Laboratories, UK) as indicators of renal and liver function. Plasma triglyceride and cholesterol concentrations were measured using an automated clinical chemistry analyser (I-lab 650, and reagents purchased from Instrumentation Laboratory (Warrington, UK). The assay kit for cholesterol was obtained from Randox Laboratories (Antrim, UK). Estimation of LDL cholesterol concentrations was achieved using the Friedewald equation as described previously.

BRIN-BD11 cells [5] = settings: 3 μM peptide (highest concentration); mean ± SEM, n = 8
Protocol: In vitro insulin-releasing effects of esculentin-2CHa and its analogues were assessed using BRIN-BD11 rat clonal β-cells and mouse islets. In the first set of experiments, BRIN-BD11 cells were incubated with the peptides in the concentration range (1 pM– 3 μM) in Krebs-Ringer bicarbonate buffer containing 5.6 mM glucose for 20 min at 37°C as previously described. Insulin-releasing effects were also assessed using buffer supplemented with 1.4 and 16.7mm glucose concentrations and with established modulators of insulin release as previously described. In a second set of experiments, islets from NIH Swiss mice, isolated by collagenase digestion, were incubated with a range of concentrations of esculentin-2CHa or its analogues (0.1 nM– 1 μM) for 1 h in Krebs-Ringer bicarbonate (KRB) buffer supplemented with 1.4, 5.6 or 16.7 mM glucose. Following test incubations, aliquots of buffer were retrieved and stored at -20°C for measurement of insulin by radioimmunoassay. In the experiments with BRIN-BD11 cells, the release of lactate dehydrogenase (LDH) was measured as an indicator of the integrity of the plasma membrane using commercially available CytoTox 96 non-radioactive cytotoxicity assay kit (Promega, Madison, WI, USA) according to the manufacturer’s recommended protocol.

[6] = peptide 75 nmol/kg ip with glucose 18 mmol/kg

Compound | Increase of membrane potential (BRIN-BD11 cells [1]; 30 mM) [fold] | Increase of insulin secretion, fold of basal ([2]; 10 mM, 20 min, n = 8) [fold] | Increase of intracellular Ca2+ (BRIN-BD11 cells [3]; 10 mM) [fold] | Stimulation of insulin release from islets, fold of basal [4] [fold] | Mouse islets (Threshold concentration) [4] [nM] | Plasma glucose (AUC) (high fat fed mice) | Plasma insulin (AUC) (high fat fed mice) | Membrane potential (AUC, x 10^3 RFU) (BRIN-BD11 cells [1]) | BRIN-BD11 cells (Threshold concentration) ([2]; 20 min, n = 8) [pM] | LDH release (% of control) (BRIN-BD11 cells [5]) | Intracellular Ca2+ (AUC, x 10^2 RFU) (BRIN-BD11 cells [3]) | Decrease of plasma glucose AUC versus glucose alone (high fat fed mice; [6]) [%] | Increase in integrated plasma insulin response versus glucose alone (high fat fed mice; [6]) [%] | Insulin-secretory response, fold of basal ([2]; 3 μM peptide, 20 min) [fold] | Stimulation of insulin response relative to that with esculentin-2CHa (high fat fed mice; [6]) [fold] | Stimulatory effect on insulin release at 3 μM compared with native peptide ([2]; 3 μM)
[Cl-].[K+] [KCl, reference compound] | 5.2 |  |  |  |  |  |  |  |  |  |  |  |  |  |  | 
C[C@H](N)C(=O)O [alanine, reference compound] |  | 7.3 | 4.6 |  |  |  |  |  |  |  |  |  |  |  |  | 
GFSSIFRGVAKFASKGLGKDKAKLGVDLVACKISKQC (disulfide 31-37 (inferred)) [[L21K]Esculentin-2CHa, substituted analogue of esculentin-2CHa with increased cationicity] |  |  |  | 2.6 | 10 | 598.68±35.23^ΔΔ mmol/l.min | 131.12±14.25^Δ ng/ml.min | 7.78±0.31 x 10^3 RFU | 10 | 100.6±2.0 % of control | 6.14±0.41 x 10^2 RFU |  |  |  |  | 
GFSSIFRGVAKFASKGLGKDLAKKGVDLVACKISKQC (disulfide 31-37 (inferred)) [[L24K]Esculentin-2CHa, substituted analogue of esculentin-2CHa with increased cationicity] |  |  |  | 2.3 | 10 | 662.25±32.14^ΔΔ mmol/l.min | 129.89±11.02^Δ ng/ml.min | 7.87±0.19 x 10^3 RFU | 10 | 101.3±3.1 % of control | 6.28±0.62 x 10^2 RFU |  |  |  |  | 
GFSSIFRGVAKFASKGLGKDLAKLGVDLVACKISKQC (disulfide 31-37 (inferred)) [Esculentin-2CHa, frog skin host-defense peptide first isolated from Lithobates chiricahuensis; synthetic] |  |  |  | 2.7 | 10 | 463.99 ± 46.95 mmol·min/L | 165.05 ± 16.89 ng·min/mL | 8.01±0.28 x 10^3 RFU |  | 102.7±1.1 % of control | 6.44±0.47 x 10^2 RFU | 33 | 48 | 10.3 |  | 
GFSSIFRGVAKFASKGLGKDLAKLGVDLVAKKISKQC [[C31K]Esculentin-2CHa, substituted analogue of esculentin-2CHa with increased cationicity] |  |  |  | 3.3 | 0.1 | 410.72 ± 29.25 mmol·min/L | 240.32±31.04 ^,ΔΔΔ ng/ml.min | 7.92±0.14 x 10^3 RFU | 10 | 100.2±2.8 % of control | 6.32±0.72 x 10^2 RFU | 40 |  |  | 2.4 | greater
GFSSIFRGVAKFASKGLGKDLAKLGVDLVASKISKQS [[C31S,C37S]Esculentin-2CHa, analogue with Cys31 and Cys37 replaced by serine] |  |  |  | 2.6 | 1 | 618.65±86.0^ΔΔ mmol/l.min | 122.74±28.65^Δ ng/ml.min | 7.96±0.24 x 10^3 RFU | 10 | 104.3±3.1 % of control | 6.55±0.36 x 10^2 RFU |  |  |  |  | 
GFSSIFRGVAKFASKGLGKKLAKLGVKLVACKISKQC (disulfide 31-37 (inferred)) [[D20K, D27K]Esculentin-2CHa, analogue with Asp20 and Asp27 replaced by L-Lysine] |  |  |  | 1.7 | 10 | 667.78±60.23^ΔΔ mmol/l.min | 122.96±16.76^Δ ng/ml.min | 7.85±0.32 x 10^3 RFU | 100 | 102.5±2.6 % of control | 6.10±0.46 x 10^2 RFU |  |  |  |  | 
GLP-1: incretin hormone used as positive control for islet insulin release [reference compound] |  |  |  | 2.4 |  |  |  |  |  |  |  |  |  |  |  | 
